The numbers were not newly measured in US11957711B2 (priority 2021, dated 2024), which cites them from elsewhere.

The structures appear in SMILES notation.

The conditions of data set [1]: parts per million in gas; gas generated from HTH and carbon dioxide.

On to `ClOCl` [CL2O, Dichlorine monoxide], for which the Solubility in water is given as 143 g/100 g. For the same compound, the maximum allowable concentration result in data set [1] was “around 1.25 ppm”. Further, the “Solubility in other solvent” value (CCL4) was “soluble in CCL4”.

For `OCl` [HCLO, Hypochlorous acid], the “time to kill the germs” value in the data set on germs is listed as “a few seconds”.
